≈ marks a conversion by molar mass, not a printed value. Like-named read-outs stand apart in the source and are kept apart here.
What was measured:
[1] = system: M. catarrhalis ATCC 25238; test: MIC determination, M. catarrhalis ATCC 25238; assay type: cell-based; details: for MIC M. catarrhalis ATCC 25238: Table 1; for MIC: Moraxella catarrhalis
S. pneumoniae ATCC 6301 = test: MIC determination, S. pneumoniae ATCC 6301; assay type: cell-based, Streptococcus pneumoniae; details: for MIC S. pneumoniae ATCC 6301: Table 1; for MIC: Streptococcus pneumoniae
S. aureus ATCC 29213 = test: MIC determination, S. aureus ATCC 29213; assay type: cell-based, Staphylococcus aureus; details: for MIC S. aureus ATCC 29213: Table 1
E. faecalis ATCC 29212 = test: MIC determination, E. faecalis ATCC 29212; assay type: cell-based, Enterococcus faecalis; details: for MIC E. faecalis ATCC 29212: Table 1; for MIC: Enterococcus faecalis
E. faecium CT-26 = test: MIC determination, E. faecium CT-26; assay type: cell-based, Enterococcus faecium; details: for MIC E. faecium CT-26: Table 1
[2] = system: S. epidermidis ATCC 12228; test: MIC determination, S. epidermidis ATCC 12228; assay type: cell-based, Staphylococcus epidermidis; details: for MIC S. epidermidis ATCC 12228: Table 1

Structure (SMILES): Oc1cccc2cccnc12 [Compound 37, 8-hydroxyquinoline]
- MIC M. catarrhalis ATCC 25238 [1]: 1 micrograms per ml
- MIC S. pneumoniae ATCC 6301 (S. pneumoniae ATCC 6301): 1 micrograms per ml
- MIC S. aureus ATCC 29213 (S. aureus ATCC 29213): 1 micrograms per ml
- MIC E. faecalis ATCC 29212 (E. faecalis ATCC 29212): 8 micrograms per ml
- MIC E. faecium CT-26 (E. faecium CT-26): 2 micrograms per ml
- MIC S. epidermidis ATCC 12228 [2]: 1 micrograms per ml

Structure (SMILES): Oc1cccc2cccnc12 [Compound 100, 8-hydroxyquinoline]
- MIC M. catarrhalis ATCC 25238 [1]: 1 micrograms per ml
- MIC S. pneumoniae ATCC 6301 (S. pneumoniae ATCC 6301): 2 micrograms per ml
- MIC S. aureus ATCC 29213 (S. aureus ATCC 29213): 2 micrograms per ml
- MIC E. faecalis ATCC 29212 (E. faecalis ATCC 29212): 4 micrograms per ml
- MIC E. faecium CT-26 (E. faecium CT-26): 2 micrograms per ml
- MIC S. epidermidis ATCC 12228 [2]: 1 micrograms per ml

Structure (SMILES): Oc1cccc2cccnc12 [Compound 56, 8-hydroxyquinoline]
- MIC M. catarrhalis ATCC 25238 [1]: 4 micrograms per ml
- MIC S. pneumoniae ATCC 6301 (S. pneumoniae ATCC 6301): 2 micrograms per ml
- MIC S. aureus ATCC 29213 (S. aureus ATCC 29213): 2 micrograms per ml
- MIC E. faecalis ATCC 29212 (E. faecalis ATCC 29212): 8 micrograms per ml
- MIC E. faecium CT-26 (E. faecium CT-26): 4 micrograms per ml
- MIC S. epidermidis ATCC 12228 [2]: 2 micrograms per ml

Structure (SMILES): Oc1cccc2cccnc12 [Compound 83, 8-hydroxyquinoline]
- MIC M. catarrhalis ATCC 25238 [1]: 2 micrograms per ml
- MIC S. pneumoniae ATCC 6301 (S. pneumoniae ATCC 6301): 2 micrograms per ml
- MIC S. aureus ATCC 29213 (S. aureus ATCC 29213): 2 micrograms per ml
- MIC E. faecalis ATCC 29212 (E. faecalis ATCC 29212): 4 micrograms per ml
- MIC E. faecium CT-26 (E. faecium CT-26): 4 micrograms per ml
- MIC S. epidermidis ATCC 12228 [2]: 1 micrograms per ml

Structure (SMILES): Oc1cccc2cccnc12 [Compound 46, 8-hydroxyquinoline]
- MIC M. catarrhalis ATCC 25238 [1]: 1 micrograms per ml
- MIC S. pneumoniae ATCC 6301 (S. pneumoniae ATCC 6301): 1 micrograms per ml
- MIC S. aureus ATCC 29213 (S. aureus ATCC 29213): 1 micrograms per ml
- MIC E. faecalis ATCC 29212 (E. faecalis ATCC 29212): 4 micrograms per ml
- MIC E. faecium CT-26 (E. faecium CT-26): 1 micrograms per ml
- MIC S. epidermidis ATCC 12228 [2]: 1 micrograms per ml

Structure (SMILES): Oc1cccc2cccnc12 [Compound 33, 8-hydroxyquinoline]
- MIC M. catarrhalis ATCC 25238 [1]: 2 micrograms per ml
- MIC S. pneumoniae ATCC 6301 (S. pneumoniae ATCC 6301): 1 micrograms per ml
- MIC S. aureus ATCC 29213 (S. aureus ATCC 29213): 1 micrograms per ml
- MIC E. faecalis ATCC 29212 (E. faecalis ATCC 29212): 8 micrograms per ml
- MIC E. faecium CT-26 (E. faecium CT-26): 2 micrograms per ml
- MIC S. epidermidis ATCC 12228 [2]: 1 micrograms per ml

Structure (SMILES): Oc1cccc2cccnc12 [Compound 38, 8-hydroxyquinoline]
- MIC M. catarrhalis ATCC 25238 [1]: 1 micrograms per ml
- MIC S. pneumoniae ATCC 6301 (S. pneumoniae ATCC 6301): 2 micrograms per ml
- MIC S. aureus ATCC 29213 (S. aureus ATCC 29213): 1 micrograms per ml
- MIC E. faecalis ATCC 29212 (E. faecalis ATCC 29212): 16 micrograms per ml
- MIC E. faecium CT-26 (E. faecium CT-26): 2 micrograms per ml
- MIC S. epidermidis ATCC 12228 [2]: 1 micrograms per ml

Structure (SMILES): Oc1cccc2cccnc12 [Compound 87, 8-hydroxyquinoline]
- MIC M. catarrhalis ATCC 25238 [1]: 1 micrograms per ml
- MIC S. pneumoniae ATCC 6301 (S. pneumoniae ATCC 6301): 2 micrograms per ml
- MIC S. aureus ATCC 29213 (S. aureus ATCC 29213): 2 micrograms per ml
- MIC E. faecalis ATCC 29212 (E. faecalis ATCC 29212): 8 micrograms per ml
- MIC E. faecium CT-26 (E. faecium CT-26): 4 micrograms per ml
- MIC S. epidermidis ATCC 12228 [2]: 1 micrograms per ml

Structure (SMILES): Oc1c(Cl)cc(Cl)c2cccnc12 [Compound 23]
- MIC ([1]; ATCC25238, Table 1, read-out: MIC M. catarrhalis ATCC 25238): 0.12 µg/mL (≈ 0.561 µM)
- MIC (S. pneumoniae ATCC 6301; ATCC6301, Table 1, read-out: MIC S. pneumoniae ATCC 6301): 8 µg/mL (≈ 37.4 µM)
- MIC S. aureus ATCC 29213 (S. aureus ATCC 29213): 0.5 micrograms per ml
- MIC (E. faecalis ATCC 29212; ATCC29212, Table 1, read-out: MIC E. faecalis ATCC 29212): 64 µg/mL (≈ 299 µM)
- MIC E. faecium CT-26 (E. faecium CT-26): 16 micrograms per ml
- MIC S. epidermidis ATCC 12228 [2]: 16 micrograms per ml

Structure (SMILES): Oc1cccc2cccnc12 [Compound 99, 8-hydroxyquinoline]
- MIC M. catarrhalis ATCC 25238 [1]: 1 micrograms per ml
- MIC S. pneumoniae ATCC 6301 (S. pneumoniae ATCC 6301): 2 micrograms per ml
- MIC S. aureus ATCC 29213 (S. aureus ATCC 29213): 2 micrograms per ml
- MIC E. faecalis ATCC 29212 (E. faecalis ATCC 29212): 8 micrograms per ml
- MIC E. faecium CT-26 (E. faecium CT-26): 2 micrograms per ml
- MIC S. epidermidis ATCC 12228 [2]: 1 micrograms per ml

Structure (SMILES): Oc1cccc2cccnc12 [Compound 88, 8-hydroxyquinoline]
- MIC M. catarrhalis ATCC 25238 [1]: 2 micrograms per ml
- MIC S. pneumoniae ATCC 6301 (S. pneumoniae ATCC 6301): 2 micrograms per ml
- MIC S. aureus ATCC 29213 (S. aureus ATCC 29213): 2 micrograms per ml
- MIC E. faecalis ATCC 29212 (E. faecalis ATCC 29212): 8 micrograms per ml
- MIC E. faecium CT-26 (E. faecium CT-26): 2 micrograms per ml
- MIC S. epidermidis ATCC 12228 [2]: 2 micrograms per ml

Structure (SMILES): Oc1cccc2cccnc12 [Compound 73, 8-hydroxyquinoline]
- MIC M. catarrhalis ATCC 25238 [1]: 0.25 micrograms per ml
- MIC S. pneumoniae ATCC 6301 (S. pneumoniae ATCC 6301): 2 micrograms per ml
- MIC S. aureus ATCC 29213 (S. aureus ATCC 29213): 2 micrograms per ml
- MIC E. faecalis ATCC 29212 (E. faecalis ATCC 29212): 64 micrograms per ml
- MIC E. faecium CT-26 (E. faecium CT-26): 8 micrograms per ml
- MIC S. epidermidis ATCC 12228 [2]: 1 micrograms per ml

Structure (SMILES): Oc1cccc2cccnc12 [Compound 89, 8-hydroxyquinoline]
- MIC M. catarrhalis ATCC 25238 [1]: 2 micrograms per ml
- MIC S. pneumoniae ATCC 6301 (S. pneumoniae ATCC 6301): 1 micrograms per ml
- MIC S. aureus ATCC 29213 (S. aureus ATCC 29213): 2 micrograms per ml
- MIC E. faecalis ATCC 29212 (E. faecalis ATCC 29212): 8 micrograms per ml
- MIC E. faecium CT-26 (E. faecium CT-26): 2 micrograms per ml
- MIC S. epidermidis ATCC 12228 [2]: 1 micrograms per ml

Structure (SMILES): Oc1cccc2cccnc12 [Compound 63, 8-hydroxyquinoline]
- MIC M. catarrhalis ATCC 25238 [1]: 1 micrograms per ml
- MIC S. pneumoniae ATCC 6301 (S. pneumoniae ATCC 6301): 2 micrograms per ml
- MIC S. aureus ATCC 29213 (S. aureus ATCC 29213): 2 micrograms per ml
- MIC E. faecalis ATCC 29212 (E. faecalis ATCC 29212): 8 micrograms per ml
- MIC E. faecium CT-26 (E. faecium CT-26): 4 micrograms per ml
- MIC S. epidermidis ATCC 12228 [2]: 1 micrograms per ml

Structure (SMILES): Oc1cccc2cccnc12 [Compound 79, 8-hydroxyquinoline]
- MIC M. catarrhalis ATCC 25238 [1]: 2 micrograms per ml
- MIC S. pneumoniae ATCC 6301 (S. pneumoniae ATCC 6301): 2 micrograms per ml
- MIC S. aureus ATCC 29213 (S. aureus ATCC 29213): 2 micrograms per ml
- MIC E. faecalis ATCC 29212 (E. faecalis ATCC 29212): 8 micrograms per ml
- MIC E. faecium CT-26 (E. faecium CT-26): 4 micrograms per ml
- MIC S. epidermidis ATCC 12228 [2]: 2 micrograms per ml

Structure (SMILES): Oc1ccc(F)c2cccnc12 [Compound 34]
- MIC M. catarrhalis ATCC 25238 [1]: 1 micrograms per ml
- MIC S. pneumoniae ATCC 6301 (S. pneumoniae ATCC 6301): 2 micrograms per ml
- MIC S. aureus ATCC 29213 (S. aureus ATCC 29213): 1 micrograms per ml
- MIC E. faecalis ATCC 29212 (E. faecalis ATCC 29212): 8 micrograms per ml
- MIC E. faecium CT-26 (E. faecium CT-26): 4 micrograms per ml
- MIC S. epidermidis ATCC 12228 [2]: 2 micrograms per ml

Structure (SMILES): Oc1cccc2cccnc12 [Compound 45, 8-hydroxyquinoline]
- MIC M. catarrhalis ATCC 25238 [1]: 1 micrograms per ml
- MIC S. pneumoniae ATCC 6301 (S. pneumoniae ATCC 6301): 1 micrograms per ml
- MIC S. aureus ATCC 29213 (S. aureus ATCC 29213): 1 micrograms per ml
- MIC E. faecalis ATCC 29212 (E. faecalis ATCC 29212): 8 micrograms per ml
- MIC E. faecium CT-26 (E. faecium CT-26): 1 micrograms per ml
- MIC S. epidermidis ATCC 12228 [2]: 1 micrograms per ml

Structure (SMILES): Nc1ccc2cccc(O)c2n1 [Compound 17]
- MIC ([1]; ATCC25238, read-out: MIC M. catarrhalis ATCC 25238): 2 µg/mL (≈ 12.5 µM)
- MIC (S. pneumoniae ATCC 6301; ATCC6301, read-out: MIC S. pneumoniae ATCC 6301): 2 µg/mL (≈ 12.5 µM)
- MIC (S. aureus ATCC 29213; Staphylococcus aureus, ATCC29213, read-out: MIC S. aureus ATCC 29213): 0.25 µg/mL (≈ 1.56 µM)
- MIC (E. faecalis ATCC 29212; ATCC29212, read-out: MIC E. faecalis ATCC 29212): 8 µg/mL (≈ 49.9 µM)
- MIC (E. faecium CT-26; Enterococcus faecium, CT26, read-out: MIC E. faecium CT-26): 8 µg/mL (≈ 49.9 µM)
- MIC ([2]; Staphylococcus epidermidis, ATCC12228, read-out: MIC S. epidermidis ATCC 12228): 2 µg/mL (≈ 12.5 µM)

Structure (SMILES): Oc1ccc(F)c2cccnc12 [Compound 64]
- MIC M. catarrhalis ATCC 25238 [1]: 1 micrograms per ml
- MIC S. pneumoniae ATCC 6301 (S. pneumoniae ATCC 6301): 4 micrograms per ml
- MIC S. aureus ATCC 29213 (S. aureus ATCC 29213): 2 micrograms per ml
- MIC E. faecalis ATCC 29212 (E. faecalis ATCC 29212): 8 micrograms per ml
- MIC E. faecium CT-26 (E. faecium CT-26): 8 micrograms per ml
- MIC S. epidermidis ATCC 12228 [2]: 2 micrograms per ml

Structure (SMILES): Oc1cccc2cccnc12 [Compound 90, 8-hydroxyquinoline]
- MIC M. catarrhalis ATCC 25238 [1]: 2 micrograms per ml
- MIC S. pneumoniae ATCC 6301 (S. pneumoniae ATCC 6301): 1 micrograms per ml
- MIC S. aureus ATCC 29213 (S. aureus ATCC 29213): 2 micrograms per ml
- MIC E. faecalis ATCC 29212 (E. faecalis ATCC 29212): 8 micrograms per ml
- MIC E. faecium CT-26 (E. faecium CT-26): 2 micrograms per ml
- MIC S. epidermidis ATCC 12228 [2]: 2 micrograms per ml

Reference: patent US7390806B2, “Antibiotics containing borinic acid complexes and methods of use” (Anacor Pharmaceuticals, Inc., priority 2002, dated 2008)
